According to paper PMC12483148 (2025):

Key:
Test in all cases: BLI, steady state fit
[1] = test system: TPP riboswitch (3'-biotinylated) (RNA, riboswitch) CAGUACUCGGGGUGCCCUUCUGCGUGAAGGCUGAGAAAUACCCGUAUCACCUGAUCUGGAUAAUGCCAGCGUAGGGAAGUGCUG; conditions: 150 mM Na+, 2 mM Mg2+, 10 mM HEPES pH 7.4, 0.005% Surfactant P20, RNA immobilised
[2] = test system: FMN riboswitch (3'-biotinylated) (RNA, riboswitch) GAUCUUCAGGGCGGGGUGAAAUUCCCCACCGGCGGUACAGCCCGCGAGCCCAGGAAACUGGGCAGACUUGGUGAAACUCCAAGGCCGACAGUAAAGUCUGGAUGAAAGAAGAUC; conditions: 150 mM Na+, 2 mM Mg2+, RNA immobilised
[3] = test system: SAM-I riboswitch (3'-biotinylated) (RNA, riboswitch) GGCUUAUCAAGAGAGGUGGAGGGACUGGCCCGACGAAACCCGGCAACCAGAAAUGGUGCCAAUUCCUGCAGCGGAAACGUUGAAAGAUGAGCCG; conditions: 150 mM Na+, 2 mM Mg2+, 10 mM HEPES pH 7.4, 0.005% Surfactant P20, RNA immobilised
[4] = 10 mM HEPES pH 7.4, 0.005% Surfactant P20

Cc1ncc(C[n+]2csc(CCOP(=O)(O)OP(=O)(O)O)c2C)c(N)n1
KD,stead ([1]; single measurement, low signal-to-noise): 0.016 µM

O=c1cc(-c2cccs2)nc(C2CCCNC2)[nH]1 (stereo not shown)
KD,stead [2, 4]: 48 µM

Cc1ncc(C[n+]2csc(CCO)c2C)c(N)n1
KD,stead ([1]; b29 says 10 μM): 7.0 µM

Cc1cc2nc3c(=O)[nH]c(=O)nc-3n(C[C@H](O)[C@H](O)[C@H](O)COP(=O)(O)O)c2cc1C
KD,stead [2, 4]: 0.043 µM

Nc1ncnc2c1ncn2[C@@H]1O[C@H](CSCC[C@H](N)C(=O)O)[C@@H](O)[C@H]1O
KD,stead ([3]; highest concentration 500 μM): 545 µM

C[S+](CC[C@H](N)C(=O)O)C[C@H]1O[C@@H](n2cnc3c(N)ncnc32)[C@H](O)[C@@H]1O (stereo partly shown)
KD,stead [3]: 0.17 µM

O=C(NCc1ccc[nH]1)c1ccc2[nH]cnc2c1
KD,stead ([2]; HBS-P+ pH 7.4, 5% DMSO, apparent): 14 µM
